Consider 4 compounds from article PMC9138090, “Study on the Neuroprotective, Radical-Scavenging and MAO-B Inhibiting Properties of New Benzimidazole Arylhydrazones as Potential Multi-Target Drugs for the Treatment of Parkinson’s Disease” (Antioxidants, 2022).

Molecules are shown by their SMILES. Counter-ions that a name gives are not always drawn. Bounds are passed on as bounds.

Data set [1] can be described thus: MTT cytotoxicity on SH-SY5Y cells. The settings on record: human, SH-SY5Y neuroblastoma cells, MTT test, 24 h incubation; read-out: IC50, in vitro cytotoxicity on SH-SY5Y cells. It counts as cell-based, human. As for the experimental part:
(§1) Human neuroblastoma cell line SH-SY5Y was obtained from the European Collection of Cell Cultures (ECACC, Salisbury, UK). The cells were maintained in 75 cm^2 flasks at 37 °C in a humidified atmosphere with 5% CO2 and cultured in RPMI 1640 medium, supplemented with 10% fetal bovine serum and 2 mM L-glutamine.
(§2) MTT (Sigma-Aldrich Chemie GmbH, Schnelldorf, Germany) assay is based on interaction between tetrazolium dye 3-(4,5-dimethylthiazol-2-yl)-2,5-diphenyltetrazolium bromide and succinic dehydrogenase in the living cells’ mitochondria. In this reaction, the formed purple formazan crystals indicate the presence of viable cells. SH-SY5Y cells were seeded in 96-well microplates at a density 2.5 × 10^4 cells/well and allowed to attach to the well surface at 37 °C in a humidified atmosphere with 5% CO2 (24 h). Different concentrations of compounds ([…]) were added to cells and incubated for 24 h. For each concentration, a set of at least 8 wells were used. After the treatment, the solution in each well was substituted with MTT (3-(4,5-dimethylthiazol-2-yl)-2,5-diphenyltetrazolium bromide) solution (0.5 mg/mL in culture medium). The microplates were further incubated for 3 h at 37 °C and the obtained formazan crystals were dissolved by 100 µL/well of DMSO. The absorbance was measured in a multiplate reader Synergy 2 (BioTek Instruments, Inc, Highland Park, Winooski, VT, USA) at 570 nm (690 nm for background absorbance).
(§3) An important step in the development of new pharmacologically active compounds is the establishment of their safety profile. An in vitro toxicity evaluation was carried out on the neuroblastoma cell line SH-SY5Y, which is a well-established model in neuroscience. The neuroblastoma SH-SY5Y are human derived cells with relatively homogeneous neuroblast-like structure. The cells express a dopamine-β-hydroxylase and tyrosine hydroxylase enzyme activity, specific types of human proteins and protein isoforms. The possible neurotoxic effects of the potential drug candidates were measured by cell viability assay (MTT-test). The IC50 values were used as a robust parameter for comparison. The test compounds were dissolved in DMSO and serially diluted in cell culture medium to achieve final concentrations ranging from 1 to 500 µM; the culture medium containing DMSO in the corresponding concentration was used as untreated controls. A concentration dependent effect on cell viability was observed after 24 h incubation.
(In general: Formazan colour is commonly taken as a measure of viable cells.)

The test system of data set [2] is SH-SY5Y cells. Put plainly: H2O2-induced oxidative stress model in SH-SY5Y cells. To be noted: 90 min pre-incubation, H2O2 1 mM 15 min. The data set is classed as cell-based, human. Here is the method: SH-SY5Y cells were seeded in 96-well plates at a density of 3.5 × 10^4/well and allowed to attach at the wells’ bottom overnight. […] Afterwards, the SH-SY5Y cells were washed with phosphate-buffered saline (PBS) to remove the extracellular amount of the test compounds. […] Then, the contents of all wells were changed with culture medium. After 24 h, the amount of attached viable cells was evaluated by MTT assay. […] Rasagiline and melatonin (Sigma-Aldrich Chemie GmbH) were used as reference compounds because of their well-established neuroprotective activity. […] The toxic mechanisms of hydrogen peroxide include the generation of reactive hydroxyl radicals and formation of products which could damage cellular lipids, proteins and DNA. […] For comparison, the effects of two compounds with well established antioxidant activity—rasagiline and melatonin—were also evaluated.

Data set [3] deals with rat brain synaptosomes. The experiment in a line: 6-OHDA-induced neurotoxicity, synaptosomal viability. It counts as cell-based. To be noted: for increase of synaptosomal viability vs. 6-OHDA treatment: 10 µM pretreatment, 6-OHDA 1 h. Here is the method: (§4) Synaptosomes were prepared from brains of adult male Wistar rats. The brains were homogenized in 10 volume of cold buffer 1, containing 5 mM HEPES and 0.32 M sucrose (pH = 7.4). The brain homogenate was centrifuged twice at 1000× g for 5 min at 4 °C. The supernatant was collected and centrifuged 3 times at 10,000× g for 20 min at 4 °C. The pellet was re-suspended in ice-cold buffer 1. The synaptosomes were isolated by using Percoll reagent to prepare the gradient. Synaptosomes were re-suspended and incubated in buffer 2, containing 290 mM NaCl, 0.95 mM MgCl2 × 6H2O, 10 mM KCl, 2.4 mM CaCl2 × H2O, 2.1 mM NaH2PO4, 44 mM HEPES, and 13 mM D-glucose. Incubations were performed in a 5% CO2 + 95% O2 atmosphere. The content of synaptosomal protein was determined according to the method of Lowry et al. using bovine serum albumin as a standard.
Synaptosomal viability was measured by (3-(4,5)-dimethylthiazol-2-yl)-2,5-diphenyl tetrazolium bromide)-test, described by Mungarro-Menchaca et al. The synaptosomes were incubated with the compounds and then treated with (3-(4,5)-dimethylthiazol-2-yl)-2,5-diphenyl tetrazolium bromide) solution (0.5 mg/mL) for 1 h at 37 °C. After incubation they were centrifuged at 15,000× g for 1 min. The formed formazan crystals were dissolved in DMSO (Dimethyl sulfoxide). The extinction was measured spectrophotometrically at λ = 580 nm.
(§5) The metabolism and oxidation of dopamine cause reactive oxygen radicals and reactive quinones to be produced, which could lead to neurotoxicity and neurodegeneration. The synaptosomes were incubated with the compounds (10 µM) for 30 min and then 6-hydroxydopamnine (150 mmol/L) was used to induce neurotoxicity. […] After 1 h, they were centrifuged on a microcentrifuge for 1 min at 15,000 rpm. The precipitates were gently mixed with buffer B and glucose and centrifuged for a second time at 15,000 rpm for 1 min. After the second wash, buffer B and glucose were added to the precipitates.
(§6) In the presented experiments, an in vitro assessment of the possible antioxidant and neuroprotective effects of the newly synthetized compounds was performed in a model of 6-OHDA induced toxicity in rat brain synaptosomes. 6-OHDA is a neurotoxicant that structurally resembles dopamine and can be used in different in vivo and in vitro models for neurotoxicity. This model resembles the histological, biochemical, and physiological characteristics of neurodegenerative diseases such as Parkinson’s and Alzheimer’s disease. […] However, their uptake into brain synaptosomes is similar among primates and rodents and they are suitable in vitro models for PD. The main mechanism of 6-OHDA toxicity includes induction of oxidative stress. It undergoes auto-oxidation or metabolic degradation to p-quinone and produces hydrogen peroxide, superoxide, and hydroxyl radicals. The process causes lipid peroxidation, protein oxidation, and DNA oxidation and finally results in oxidative stress and mitochondrial dysfunction. Rat brain synaptosomes were pretreated with compounds 3e, 3h, 3i, 3m, melatonin, and rasagiline (10 μM); after that, the samples were subjected to 6-OHDA (150 mmol/L, 1 h). The protective effects were evaluated by measurement of synaptosomal viability (MTT-test) and GSH levels (Figure 3).

In data set [4] the test system is rat brain synaptosomes. The experiment in a line: 6-OHDA-induced neurotoxicity, GSH level. It counts as cell-based. The settings on record: for restoration of GSH level vs. 6-OHDA treatment: 10 µM pretreatment, 6-OHDA 150 mmol/L 1 h. Here is the method:
as §4, §5, §6

Data set [5] is described as follows: Fe(II)-induced oxidative damage of lecithin (TBA-RS). To be noted: 90 µmol/L, lecithin 1 mg/mL, FeCl2 0.1 mmol/L. Here is the method: The classical method of determining the TBA-reactive substances at 532 nm as described by Asakawa and Matsushita has been used. Two groups of measurement compositions named controls and samples were prepared in phosphate buffer (K2HPO4/KH2PO4, pH 7.4) for each of the used substrates. Both of them contained equivalent concentrations of lecithin (1 mg/mL) or 2-deoxyribose (0.5 mmol/L) and FeCl2 (0.1 mmol/L). In the controls, the tested hydrazones have been omitted and in the samples the effect of the newly designed compounds at the concentrations indicated below the figures has been determined. The obtained samples were incubated at 37 °C for 30 min. The reaction was stopped, and after adding 0.5 mL 2.8% trichloroacetic acid and 0.5 mL of thiobarbituric acid, the samples were heated in boiling water for 20 min. The lecithin containing samples were centrifuged at 3000 rpm for 20 min and the supernatant was aspired out. The results have been presented as a percentage of the control sample, treated only with ferrous iron where we expected maximum oxidative damage under the described conditions.

The subject of data set [6] is SH-SY5Y cells. The experiment in a line: MTT cytotoxicity on SH-SY5Y cells. It counts as cell-based, human. To be noted: MTT test, 24 h incubation; read-out: IC50, in vitro cytotoxicity on SH-SY5Y cells. As for the experimental part:
as §1, §2, §3

Data set [7] deals with T1, human recombinant MAO-B (hMAO-B) enzyme (Homo sapiens, UniProt P27338).
T1 construct: purchased Invitrogen, USA
T1 sequence (P27338 1-520): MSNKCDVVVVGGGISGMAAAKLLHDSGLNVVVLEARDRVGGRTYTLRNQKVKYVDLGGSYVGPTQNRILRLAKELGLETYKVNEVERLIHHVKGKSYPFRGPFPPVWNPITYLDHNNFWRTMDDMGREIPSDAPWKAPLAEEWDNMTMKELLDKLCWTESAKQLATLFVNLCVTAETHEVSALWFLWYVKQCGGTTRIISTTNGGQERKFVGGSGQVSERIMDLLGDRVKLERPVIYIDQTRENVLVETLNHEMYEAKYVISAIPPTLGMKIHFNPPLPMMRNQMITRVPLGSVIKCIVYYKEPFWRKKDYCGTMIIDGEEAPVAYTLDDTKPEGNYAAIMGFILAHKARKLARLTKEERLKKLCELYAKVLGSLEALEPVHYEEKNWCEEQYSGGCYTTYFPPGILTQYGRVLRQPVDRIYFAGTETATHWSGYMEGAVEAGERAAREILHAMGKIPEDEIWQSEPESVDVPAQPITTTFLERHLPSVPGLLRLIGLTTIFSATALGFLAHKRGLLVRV
Put plainly: hMAO-B activity, Amplex UltraRed fluorometric method. It counts as biochemical. The settings on record: 1 µM. Here is the method: The effects of the test compounds on human recombinant MAO-B (hMAO-B) enzyme were studied by the Amplex UltraRed reagent (Sigma-Aldrich Chemie GmbH) fluorometric method with small modifications. The working solutions of the compounds, reagents, hMAO-B, and reaction buffers were prepared according to the producer’s instructions. The tyramine hydrochloride was used as a substrate. The reaction mixture contained a stock solution of Amplex Red (10 mM in dimethyl sulfoxide), the reaction buffer (0.05 M sodium phosphate) at pH 7.4, and the storage solution of horseradish peroxidase (10 U/mL). There were pure MAO-B working solutions in the reaction buffer and MAO-B working solution containing hydrogen peroxide as controls. The final concentration of the test compounds in the well was 1 μM. The compounds together with hMAO-B were embedded in a 96-well plate (8 wells for each compound), and then the plate was incubated for 30 min (dark, at 37 °C). Thereafter, the reaction was initiated by 50 μL Mix Solution: Amplex®Red reagent, horseradish peroxidase, and tyramine as an enzyme substrate in the reaction buffer. The fluorescence was measured every 30 min at 0, 30, 60, 90, 120, and 150 min), in dark, while shaking the reaction mixture at constant temperature of 37 °C. The fluorimetric measurements were assessed using a Synergy 2 Microplate Reader.
Monoamine oxidase B catalyzes dopamine metabolism and oxidation leading to the formation of reactive oxygen species and reactive quinones, which provoke dopamine neurotoxicity and neurodegeneration. In the next experiments, the compounds showing the best safety profile and the most promising neuroprotective activity (3d, 3e, 3h, 3i, 3m, 3n, 3p) were evaluated for their potential inhibitory activity on hMAOB. Selegiline and rasagiline as potent MAO-B inhibitors were used as standard compounds for comparison.

One may read the IC50 as the midpoint of a concentration-inhibition curve. With `COc1ccc2[nH]cc(CCNC(C)=O)c2c1` [Melatonin], the half-maximal inhibitory concentration (IC50) at 24 h in data set [1] was more than 500 µM. The “cell viability protection vs. H2O2-treatment” value in data set [2] (1 µM) came to 20%; in data set [2] (10 µM), 29%; in data set [2] (50 µM) it was 52%. The “increase of synaptosomal viability vs. 6-OHDA treatment” value in data set [3] came to 68%. Further, in data set [4], the “restoration of GSH level vs. 6-OHDA treatment” value is on record as 70%. Also, in data set [5], the “sample/control absorbance ratio (% of the control), lecithin peroxidation” value is listed as 75%.
Consider `C#CCN[C@@H]1CCc2ccccc21` [Rasagiline HCl, Rasagiline], for which the IC50 at 24 h in data set [1] is more than 500 µM. Moreover, the “cell viability protection vs. H2O2-treatment” value in data set [2] (1 µM) was 10%; in data set [2] (10 µM) it was 20%; in data set [2] (50 µM), 39%. Besides, in data set [3], the “increase of synaptosomal viability vs. 6-OHDA treatment” value is 61%. For the same compound, in data set [4], the “restoration of GSH level vs. 6-OHDA treatment” value turned out to be 60%.
The melting point is the temperature, or range, at which the solid turns liquid. For the compound `COc1cc(C=NNC(=O)CCn2c(=S)n(CCC(=O)NN=Cc3cc(OC)c(O)c(OC)c3)c3ccccc32)cc(OC)c1O` [3d, 3,3′-(2-Thioxo-1H-benzo[d]imidazole-1,3(2H)-diyl)bis(N′-(4-hydroxy-3,5-dimethoxybenzylidene)propanehydrazide)], the melting point lay within 284 to 286 °C. Also, in data set [1], the IC50 at 24 h is more than 250 µM. Further, the IC50 in data set [6] stood at 268 µM. In data set [7], the “inhibitory effect on hMAOB activity (in words)” value is “statistically significant MAO-B inhibitory effects”. Also, the “sample/control absorbance ratio (% of the control), lecithin peroxidation” value in data set [5] is listed as “around 40%”.
Turning to `NCCc1cc(O)c(O)cc1O` [6-OHDA, 6-hydroxydopamine, reference compound], the “reduction of synaptosomal vitality compared to untreated controls” value in data set [3] (6-OHDA, 1 h) is listed as 56%. Moreover, the “reduction of GSH level compared to untreated controls” value in data set [4] (6-OHDA 150 mmol/L, 1 h) turned out to be 50%.
